Read-outs that look alike come from different tables or passages of the source.
What was measured:
NCI-H2122 cells = assay: NCI-H2122 CTG proliferation assay (120 h) (NSCLC, G12C); format: cell-based; conditions: Homo sapiens
In short: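 Proliferation was read by CellTiter-Glo luminescence after 120 h of compound exposure, starting one day after seeding 200 NCI-H2122 (G12C) cells per well in RPMI/10% FCS. RLU relative to DMSO wells gave percent viability, and four-parameter nonlinear regression gave IC50.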

MKN1 cells = assay: MKN1 CTG proliferation assay (120 h) (gastric cancer, wt amplified); format: cell-based; conditions: Homo sapiens
In short: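 MKN1 gastric cancer cells (200–500 per well, RPMI + 10% FCS) given a logarithmic compound dose series and incubated 120 h. Viability by CellTiter-Glo luminescence as percent of DMSO controls. IC50 by four-parameter non-linear regression.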

CYP3A4 = CYP3A4 (Homo sapiens (Human), UniProt P08684); assay: Mechanism based inhibition of CYP3A4 assay (MBI 3A4); format: in vitro ADME; conditions: hydroxy-midazolam formation after 30 min vs 0 min preincubation, 25 uM, human liver microsomes
In short: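 Readout is hydroxy-midazolam formed after 30 min preincubation relative to 0 min, measured by LC/MS-MS after acetonitrile quench. Following preincubation, samples diluted 1:10 and incubated 15 min with midazolam substrate.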

GP2D cells = assay: GP2D proliferation assay (120 h) (colorectal cancer, G12D); format: cell-based
In short: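 500 cells/well in DMEM + GlutaMAX + 10% FCS, exposed to a logarithmic compound dose series (DMSO-normalized) for 120 h. Viability read by CellTiter-Glo luminescence as percent of DMSO control, with an untreated T0 read at dosing; IC50 from four-parameter non-linear regression.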

[1] = MKN-1, assay 1, CTG 120 h, read-out: MKN1 (assay 1) IC50
[2] = MKN-1, assay 3, CTG 120 h, read-out: MKN1 (assay 3) IC50
[3] = MKN-1, assay 2, CTG 120 h, read-out: MKN1 (assay 2) IC50

CYP3A4, sequence (P08684 whole entry): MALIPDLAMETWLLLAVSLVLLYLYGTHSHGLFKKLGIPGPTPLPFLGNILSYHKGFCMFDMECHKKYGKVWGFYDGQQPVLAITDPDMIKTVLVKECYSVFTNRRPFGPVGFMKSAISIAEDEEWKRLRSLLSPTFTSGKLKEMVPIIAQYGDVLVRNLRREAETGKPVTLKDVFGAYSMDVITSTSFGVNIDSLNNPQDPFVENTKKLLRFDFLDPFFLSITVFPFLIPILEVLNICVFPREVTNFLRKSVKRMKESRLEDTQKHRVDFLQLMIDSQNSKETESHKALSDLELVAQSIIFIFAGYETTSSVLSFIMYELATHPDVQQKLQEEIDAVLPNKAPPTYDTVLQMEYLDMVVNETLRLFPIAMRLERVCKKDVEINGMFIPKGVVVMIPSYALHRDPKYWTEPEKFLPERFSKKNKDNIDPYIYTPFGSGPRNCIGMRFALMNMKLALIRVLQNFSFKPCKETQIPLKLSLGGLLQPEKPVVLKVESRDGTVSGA

An IC50 (NCI-H2122 cells) of 221 nM, an IC50 (MKN1 cells; [1]) of 216 nM and an IC50 (MKN1 cells; [2]) of 297 nM were found for `C[C@H](Oc1cc(-n2ccc(-c3cnccn3)n2)nc(-c2noc3c2CCC[C@@]32CCCc3sc(N)c(C#N)c32)n1)[C@@H]1CCCN1C` [II-130] in this work. For the same molecule, the “MBI 3A4” value (CYP3A4) was 67% and the IC50 (GP2D cells) was 233 nM.

An IC50 (NCI-H2122 cells) of 180 nM, an IC50 (MKN1 cells; [2]) of 391 nM and an IC50 (GP2D cells) of 301 nM were found for `C[C@H](Oc1cc(-c2cccc(C(N)=O)c2)nc(-c2noc3c2CCC[C@@]32CCCc3sc(N)c(C#N)c32)n1)[C@@H]1CCCN1C` [II-133] in this work.

With `C[C@H](Oc1cc(N2CCN(C)C3(CC3)C2)nc(-c2noc3c2CCC[C@@]32CCCc3sc(N)c(C#N)c32)n1)[C@@H]1C[C@@H](F)CN1C` [II-149] the IC50 (NCI-H2122 cells) was 2550 nM, the IC50 (MKN1 cells; [3]) was 467 nM and the “MBI 3A4” value (CYP3A4) was 42%. For the same molecule, the IC50 (GP2D cells) was 8 nM.

`C[C@H](Oc1cc(N2CCNC3(COC3)C2)nc(-c2noc3c2CCC[C@@]32CCCc3sc(N)c(C#N)c32)n1)[C@@H]1C[C@@H](F)CN1C` [II-150] was tested, and the IC50 (NCI-H2122 cells) was 2510 nM, the IC50 (MKN1 cells; [3]) was 32 nM and the “MBI 3A4” value (CYP3A4) was 49%. It also gave an IC50 (GP2D cells) of 1 nM.

An IC50 (NCI-H2122 cells) of 929 nM, an IC50 (MKN1 cells; [3]) of 284 nM and an IC50 (MKN1 cells; [2]) of 633 nM were found for `C[C@H](Oc1nc(-c2noc3c2CCC[C@@]32CCCc3sc(N)c(C#N)c32)nc(N2CCNC3(CC3)C2)c1F)[C@@H]1C[C@@H](F)CN1C` [II-155] in this work. For the same molecule, the IC50 (GP2D cells) was 1 nM.

`C[C@H](Oc1cc(N2CCN[C@@H](C)C2)nc(-c2noc3c2CCC[C@@]32CCCc3sc(N)c(C#N)c32)n1)[C@@H]1CCCN1C` [II-162] was tested, and the IC50 (NCI-H2122 cells) was 3320 nM, the IC50 (MKN1 cells; [2]) was 411 nM and the “MBI 3A4” value (CYP3A4) was 84%. For the same molecule, the IC50 (GP2D cells) was 30 nM.

An IC50 (NCI-H2122 cells) of 4580 nM, an IC50 (MKN1 cells; [2]) of 1070 nM and an IC50 (GP2D cells) of 23 nM were found for `C[C@H](Oc1cc(C2=CCNCC2)nc(-c2noc3c2CCC[C@@]32CCCc3sc(N)c(C#N)c32)n1)[C@@H]1CCCN1C` [II-164] in this work.

An IC50 (NCI-H2122 cells) of 1790 nM, an IC50 (MKN1 cells; [3]) of 427 nM and an IC50 (GP2D cells) of 1 nM were found for `C[C@H](Oc1cc(N2CCNC3(CC3)C2)nc(-c2noc3c2CCC[C@@]32CCCc3sc(N)c(C#N)c32)n1)[C@@H]1C[C@@H](F)CN1C` [II-165] in this work.

An IC50 (NCI-H2122 cells) of 1770 nM, an IC50 (MKN1 cells; [2]) of 176 nM and an IC50 (GP2D cells) of 12 nM were found for `C[C@H](Oc1cc(-n2cc3c(n2)CNC3)nc(-c2noc3c2CCC[C@@]32CCCc3sc(N)c(C#N)c32)n1)[C@@H]1CCCN1C` [II-168] in this work.

`C[C@H](Oc1cc(N2CCN(C)C3(CC3)C2)nc(-c2noc3c2CCC[C@@]32CCCc3sc(N)c(C#N)c32)n1)[C@@H]1CCCN1C` [II-171] was tested, and the IC50 (NCI-H2122 cells) was 3060 nM, the “MBI 3A4” value (CYP3A4) was 63% and the IC50 (GP2D cells) was 5 nM.

In the case of `C[C@H](Oc1cc(N2C[C@H](C)N(C)[C@@H](C)C2)nc(-c2noc3c2CCC[C@@]32CCCc3sc(N)c(C#N)c32)n1)[C@@H]1CCCN1C` [II-173], the IC50 (NCI-H2122 cells) is reported as 1460 nM, the “MBI 3A4” value (CYP3A4) is reported as 82% and the IC50 (GP2D cells) is reported as 107 nM.

An IC50 (MKN1 cells; [3]) of 341 nM and an IC50 (GP2D cells) of 3 nM were found for `C[C@H](Oc1cc(-n2cc3c(n2)CN(C)C3)nc(-c2noc3c2CCC[C@@]32CCCc3sc(N)c(C#N)c32)n1)[C@@H]1CCCN1C` [II-174] in this work.

`CCN1CCN(c2cc(O[C@@H](C)[C@@H]3C[C@@H](F)CN3C)nc(-c3noc4c3CCC[C@@]43CCCc4sc(N)c(C#N)c43)n2)CC12CC2` [II-185] was tested, and the IC50 (MKN1 cells; [3]) was > 949 nM, the IC50 (MKN1 cells; [2]) was 1900 nM and the IC50 (GP2D cells) was 15 nM.

An IC50 (MKN1 cells; [3]) of 313 nM, an IC50 (MKN1 cells; [2]) of 260 nM and an IC50 (GP2D cells) of 2 nM were found for `CO[C@H]1CCN(C)[C@@H]1[C@H](C)Oc1cc(N2CCN(C)C3(CC3)C2)nc(-c2noc3c2CCC[C@@]32CCCc3sc(N)c(C#N)c32)n1` [II-186] in this work.

An IC50 (MKN1 cells; [3]) of 383 nM, an IC50 (MKN1 cells; [2]) of 357 nM and an IC50 (GP2D cells) of 1 nM were found for `CO[C@@H]1C[C@@H]([C@H](C)Oc2cc(N3CCNC4(CC4)C3)nc(-c3noc4c3CCC[C@@]43CCCc4sc(N)c(C#N)c43)n2)N(C)C1` [II-187] in this work.

An IC50 (MKN1 cells; [1]) of 25 nM, an IC50 (MKN1 cells; [3]) of 26 nM and an IC50 (MKN1 cells; [2]) of 9 nM were found for `C[C@H](Oc1cc(-n2ccc(C(=O)N[C@@H]3CCOC3)n2)nc(-c2noc3c2CCC[C@@]32CCCc3sc(N)c(C#N)c32)n1)[C@@H]1CCCN1C` [II-192] in this work. For the same molecule, the “MBI 3A4” value (CYP3A4) was 49% and the IC50 (GP2D cells) was 31 nM.

An IC50 (MKN1 cells; [3]) of 41 nM, an IC50 (MKN1 cells; [2]) of 63 nM and an IC50 (GP2D cells) of 137 nM were found for `C[C@H](Oc1cc(-n2cc3ccn([C@@H]4CCOC4)c(=O)c3n2)nc(-c2noc3c2CCC[C@@]32CCCc3sc(N)c(C#N)c32)n1)[C@@H]1CCCN1C` [II-203] in this work.

An IC50 (MKN1 cells; [3]) of 33 nM, an IC50 (MKN1 cells; [2]) of 48 nM and an IC50 (GP2D cells) of 122 nM were found for `C[C@H](Oc1cc(-n2cc3ccn(C[C@H]4CCOC4)c(=O)c3n2)nc(-c2noc3c2CCC[C@@]32CCCc3sc(N)c(C#N)c32)n1)[C@@H]1CCCN1C` [II-204] in this work.
